Source: patent publication US12201632B2, “Levoketoconazole for treatment of congenital adrenal hyperplasia and primary aldosteronism” (Strongbridge Dublin Limited, priority 2018, dated 2025)

Tested on: HAC15 cells
Assay: Cell number (DNA) of HAC15 cells
Assay type: cell-based, Human
Settings: HAC15, 1 or 3 days, with or without ACTH
Experimental: Human adrenocortical carcinoma HAC15 and mouse corticotroph AtT20 cells were used, purchased as a kind gift by Dr. W. Rainey, and obtained from Dr. J. Tooze (European Organization for Molecular Biology), respectively. Both cell lines were cultured in 75 cm^2 flasks at 37° C. in a humidified incubator (Greiner Bio-One, Alphen a/d Rijn, the Netherlands) at 5% CO2. Dulbecco's Modified Eagle Medium F12 containing 5% fetal calf serum was used for HAC15, whereas AtT20 cells were cultured in Dulbecco's minimal essential medium (DMEM) supplemented with 10% fetal calf serum. Both mediums were supplemented with L-glutamine (2 mmol/L) and penicillin (10^5 U/L). Short tandem repeat (str) profiling using a Powerplex Kit (Promega, Leiden, the Netherlands) of HAC15 and AtT20 gave results consistent with the ATCC database, confirming the identity of both cell lines. Medium and supplements were obtained from Invitrogen, Breda, the Netherlands. Once a week, cells were harvested with trypsin (0.05%)-EDTA (0.53 mM) and resuspended in culture medium. […]
As a measure of cell number, DNA concentrations were determined using the bisbenzimide fluorescent dye (Hoechst 33258, Sigma Aldrich), as previously described.

CC(=O)N1CCN(c2ccc(OCC3COC(Cn4ccnc4)(c4ccc(Cl)cc4Cl)O3)cc2)CC1 (racemic) [racemic ketoconazole, Ketoconazole]
effects on cell number: no effects

CC(=O)N1CCN(c2ccc(OC[C@@H]3CO[C@@](Cn4ccnc4)(c4ccc(Cl)cc4Cl)O3)cc2)CC1 (relative stereo) [levoketoconazole, 2S,4R cis-1-acetyl-4-[4-[[2-(2,4-dichlorophenyl)-2-(1H-imidazol-1-ylmethyl)-1,3-dioxolan-4-yl]methoxyl]phenyl]piperazine]
effects on cell number: no effects
